Measurements taken from patent US20230117034A1, “PYRAZOLOTRIAZINES” (Bayer Aktiengesellschaft, priority 2019, published 2023).

What was measured:
[1] = system: MDA-MB-231, human breast cancer cells; test: Proliferation assay MDA-MB-231 (crystal violet, 4 days); format: cell-based; conditions: Homo sapiens, MDA-MB-231, 96 h, MDA-MB-231 cells, median, read-out: Prolif-MDA MB-231, IC50-[mol/l] (median)
How it was run: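 IC50 from a 4-parameter fit of crystal violet absorbance (595 nm), scaled between the day-of-dosing plate (0%) and vehicle cells (100%). MDA-MB-231 or CAL-120 cells were treated for 4 days with 0.01–10 micromol/L compound in 0.1% DMSO after 24 h attachment.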

[2] = molecular target: T1, CDK9/CycT1 (Homo sapiens, UniProt P50750); test: CDK9/CycT1 high ATP kinase assay (TR-FRET, 2 mM ATP); format: biochemical; conditions: 2 mM ATP (high ATP); median; read-out: CDK9/CyclinT1, 2 mM ATP (high ATP), IC50 (median)
T1 construct: Recombinant full-length His-tagged human CDK9 and CycT1; purchased Life Technologies PV4131; host or cells: insect cells
T1 sequence (P50750 whole entry): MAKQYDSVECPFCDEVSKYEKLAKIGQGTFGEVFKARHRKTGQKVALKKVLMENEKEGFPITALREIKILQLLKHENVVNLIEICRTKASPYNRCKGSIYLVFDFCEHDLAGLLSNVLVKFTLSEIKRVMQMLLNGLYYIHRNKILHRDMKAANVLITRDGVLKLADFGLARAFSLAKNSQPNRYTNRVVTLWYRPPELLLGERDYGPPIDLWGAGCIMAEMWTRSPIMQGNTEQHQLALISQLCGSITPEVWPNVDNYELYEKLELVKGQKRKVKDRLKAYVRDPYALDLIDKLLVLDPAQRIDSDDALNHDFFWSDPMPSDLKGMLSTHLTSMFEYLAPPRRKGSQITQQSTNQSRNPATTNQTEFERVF
T1 sequence (O60563 whole entry partner): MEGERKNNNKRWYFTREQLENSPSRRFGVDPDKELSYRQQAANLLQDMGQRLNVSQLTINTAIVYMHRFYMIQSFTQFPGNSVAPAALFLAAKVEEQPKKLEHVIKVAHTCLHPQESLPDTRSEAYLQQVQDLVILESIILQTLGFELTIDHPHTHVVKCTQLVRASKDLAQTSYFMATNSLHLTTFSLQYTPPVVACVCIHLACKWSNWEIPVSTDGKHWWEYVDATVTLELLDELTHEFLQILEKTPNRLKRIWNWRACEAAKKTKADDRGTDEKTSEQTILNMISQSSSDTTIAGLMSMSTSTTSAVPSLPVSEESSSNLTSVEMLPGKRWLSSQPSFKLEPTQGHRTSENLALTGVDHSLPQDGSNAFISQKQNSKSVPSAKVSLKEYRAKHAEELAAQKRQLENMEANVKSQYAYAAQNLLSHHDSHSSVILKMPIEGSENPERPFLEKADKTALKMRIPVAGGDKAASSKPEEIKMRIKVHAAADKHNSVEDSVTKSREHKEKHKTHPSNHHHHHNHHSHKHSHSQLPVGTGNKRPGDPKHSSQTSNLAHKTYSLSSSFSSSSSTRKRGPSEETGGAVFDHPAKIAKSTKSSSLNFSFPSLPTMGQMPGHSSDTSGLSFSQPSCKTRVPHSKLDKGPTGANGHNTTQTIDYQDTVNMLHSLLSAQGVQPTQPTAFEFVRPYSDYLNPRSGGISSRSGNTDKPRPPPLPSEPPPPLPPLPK
How it was run: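 Full-length His-tagged human CDK9/CycT1 (insect cell, ~0.5 μg/mL) preincubated 15 min at 22 °C with compound in Tris pH 8.0, MgCl2, DTT buffer before reaction with biotinylated peptide substrate at high ATP (2 mM).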

Compound	IC50 [1] [nM]	IC50 [2] [nM]
COC(C)(C)COc1nc(NCc2nc3ccccc3[nH]2)n2ncc(Br)c2n1 [Example 403, N-[(1H-benzimidazol-2-yl)methyl]-8-bromo-2-(2-methoxy-2-methylpropoxy)pyrazolo[1,5-a][1,3,5]triazin-4-amine]	524	> 20000
CCc1cnn2c(NCc3nc4ccccc4[nH]3)nc(N3CCOCC3)nc12 [Example 431, N-[(1H-benzimidazol-2-yl)methyl]-8-ethyl-2-(morpholin-4-yl)pyrazolo[1,5-a][1,3,5]triazin-4-amine]	28.4	> 20000
FC(F)n1cc(-c2cnn3c(NCc4nc5cc(Cl)c(Cl)cc5[nH]4)nc(N4CCOCC4)nc23)cn1 [Example 423, N-[(5,6-dichloro-1H-benzimidazol-2-yl)methyl]-8-[1-(difluoromethyl)-1H-pyrazol-4-yl]-2-(morpholin-4-yl)pyrazolo[1,5-a][1,3,5]triazin-4-amine]	18.2	> 20000
CN1CCN(c2nc(NCc3nc4cc(Cl)c(Cl)cc4[nH]3)n3ncc(-c4cnn(C)c4)c3n2)CC1 [Example 420, N-[(5,6-dichloro-1H-benzimidazol-2-yl)methyl]-2-(4-methylpiperazin-1-yl)-8-(1-methyl-1H-pyrazol-4-yl)pyrazolo[1,5-a][1,3,5]triazin-4-amine]	525	> 20000
Fc1ccc2[nH]c(CNc3nc(N4CCOCC4)nc4c(-c5cncs5)cnn34)nc2c1F.O=C(O)C(F)(F)F [Example 442, trifluoroacetic acid N-[(4,5-difluoro-1H-benzimidazol-2-yl)methyl]-2-(morpholin-4-yl)-8-(1,3-thiazol-5-yl)pyrazolo[1,5-a][1,3,5]triazin-4-amine]	6.38	> 20000
O=C(O)C(F)(F)F.c1ccc2[nH]c(CNc3nc(N4CCOCC4)nc4c(-c5cncs5)cnn34)nc2c1 [Example 441, trifluoroacetic acid-N-[(1H-benzimidazol-2-yl)methyl]-2-(morpholin-4-yl)-8-(1,3-thiazol-5-yl)pyrazolo[1,5-a][1,3,5]triazin-4-amine (1/1)]	28.5	> 20000
Cc1cnn2c(NCc3nc4ccccc4[nH]3)nc(N(C)CC(C)(C)O)nc12 [Example 397, 1-[(4-{[(1H-benzimidazol-2-yl)methyl]amino}-8-methylpyrazolo[1,5-a][1,3,5]triazin-2-yl)(methyl)amino]-2-methylpropan-2-ol]	399	> 20000
CC(C)c1cnn2c(NCc3nnc(-c4ccccc4)[nH]3)nc(N3CCOCC3)nc12 [Example 33, 2-(morpholin-4-yl)-N-[(5-phenyl-4H-1,2,4-triazol-3-yl)methyl]-8-(propan-2-yl)pyrazolo[1,5-a][1,3,5]triazin-4-amine]	290	14100
Cc1cnn2c(NCc3nc4ccccc4[nH]3)nc(N3CCOCC3)nc12 [Example 393, N-[(1H-benzimidazol-2-yl)methyl]-8-methyl-2-(morpholin-4-yl)pyrazolo[1,5-a][1,3,5]triazin-4-amine]	120	> 20000
Clc1cc2nc(CNc3nc(N4CCOCC4)nc4c(-c5cncs5)cnn34)[nH]c2cc1Cl [Example 443, N-[(5,6-dichloro-1H-benzimidazol-2-yl)methyl]-2-(morpholin-4-yl)-8-(1,3-thiazol-5-yl)pyrazolo[1,5-a][1,3,5]triazin-4-amine]	6.17	> 20000
Cc1cnn2c(NCc3nc4c(F)c(F)ccc4[nH]3)nc(N3CCN(C)CC3)nc12 [Example 394, N-[(4,5-difluoro-1H-benzimidazol-2-yl)methyl]-8-methyl-2-(4-methylpiperazin-1-yl)pyrazolo[1,5-a][1,3,5]triazin-4-amine]	19.8	> 20000
COc1ccccc1-c1nnc(CNc2nc(N3CCOCC3)nc3c(Br)cnn23)[nH]1 [Example 61, 8-bromo-N-{[5-(2-methoxyphenyl)-4H-1,2,4-triazol-3-yl]methyl}-2-(morpholin-4-yl)pyrazolo[1,5-a][1,3,5]triazin-4-amine]	30.8	> 20000
CN1CCN(c2nc(NCc3nc4c(F)c(F)ccc4[nH]3)n3ncc(-c4nccs4)c3n2)CC1 [Example 415, N-[(4,5-difluoro-1H-benzimidazol-2-yl)methyl]-2-(4-methylpiperazin-1-yl)-8-(1,3-thiazol-2-yl)pyrazolo[1,5-a][1,3,5]triazin-4-amine]	584	> 20000
Brc1cnn2c(NCc3nc4ccccc4[nH]3)nc(OC3CCCCC3)nc12 [Example 406, N-[(1H-benzimidazol-2-yl)methyl]-8-bromo-2-(cyclohexyloxy)pyrazolo[1,5-a][1,3,5]triazin-4-amine]	283	> 20000
Brc1cnn2c(NCc3nc4ccccc4[nH]3)nc(OC3CCNCC3)nc12 [Example 411, N-[(1H-benzimidazol-2-yl)methyl]-8-bromo-2-[(piperidin-4-yl)oxy]pyrazolo[1,5-a][1,3,5]triazin-4-amine]	138	> 20000
FC(F)n1cc(-c2cnn3c(NCc4nc5ccccc5[nH]4)nc(N4CCOCC4)nc23)cn1 [Example 421, N-[(1H-benzimidazol-2-yl)methyl]-8-[1-(difluoromethyl)-1H-pyrazol-4-yl]-2-(morpholin-4-yl)pyrazolo[1,5-a][1,3,5]triazin-4-amine]	87.5	> 20000
CN1CCN(c2nc(NCc3nc4c(F)c(F)ccc4[nH]3)n3ncc(CC(F)(F)F)c3n2)CC1 [Example 437, N-[(4,5-difluoro-1H-benzimidazol-2-yl)methyl]-2-(4-methylpiperazin-1-yl)-8-(2,2,2-trifluoroethyl) pyrazolo[1,5-a][1,3,5]triazin-4-amine]	45.8	> 20000
Brc1cnn2c(NCc3nc4ccccc4[nH]3)nc(OCCN3CCCC3)nc12 [Example 404, N-[(1H-benzimidazol-2-yl)methyl]-8-bromo-2-[2-(pyrrolidin-1-yl)ethoxy]pyrazolo[1,5-a][1,3,5]triazin-4-amine]	1840	> 20000
CN(C)CCOc1nc(NCc2nc3ccccc3[nH]2)n2ncc(Br)c2n1 [Example 399, N-[(1H-benzimidazol-2-yl)methyl]-8-bromo-2-[2-(dimethylamino)ethoxy]pyrazolo[1,5-a][1,3,5]triazin-4-amine]	384	> 20000
CN(CC(C)(C)O)c1nc(NCc2nc3c(F)c(F)ccc3[nH]2)n2ncc(C(F)(F)F)c2n1 [Example 402, 1-{[4-{[(4,5-difluoro-1H-benzimidazol-2-yl)methyl]amino}-8-(trifluoromethyl)pyrazolo[1,5-a][1,3,5]triazin-2-yl](methyl)amino}-2-methylpropan-2-ol]	8.56	5400
Cc1cnn2c(NCc3nc4ccccc4[nH]3)nc(N3CCN(C)CC3)nc12 [Example 396, N-[(1H-benzimidazol-2-yl)methyl]-8-methyl-2-(4-methylpiperazin-1-yl)pyrazolo[1,5-a][1,3,5]triazin-4-amine]	157	> 20000
Brc1cnn2c(NCc3nc4ccccc4[nH]3)nc(OCC3CC3)nc12 [Example 408, N-[(1H-benzimidazol-2-yl)methyl]-8-bromo-2-(cyclopropylmethoxy)pyrazolo[1,5-a][1,3,5]triazin-4-amine]	741	> 20000
N#Cc1cccc(-c2c[nH]c(CNc3nc(N4CCOCC4)nc4c(Br)cnn34)n2)c1 [Example 42, 3-[2-({[8-bromo-2-(morpholin-4-yl)pyrazolo[1,5-a][1,3,5]triazin-4-yl]amino}methyl)-1H-imidazol-4-yl]benzonitrile]	5.74	937
Brc1cnn2c(NCc3nc4ccccc4[nH]3)nc(OC3CCOCC3)nc12 [Example 405, N-[(1H-benzimidazol-2-yl)methyl]-8-bromo-2-[(oxan-4-yl)oxy]pyrazolo[1,5-a][1,3,5]triazin-4-amine]	439	> 20000
COc1cccc2[nH]c(CNc3nc(N4CCOCC4)nc4c(-c5nccs5)cnn34)nc12 [Example 414, N-[(4-methoxy-1H-benzimidazol-2-yl)methyl]-2-(morpholin-4-yl)-8-(1,3-thiazol-2-yl)pyrazolo [1,5-a][1,3,5]triazin-4-amine]	687	> 20000
CN1CCN(c2nc(NCc3nc4ccccc4[nH]3)n3ncc(C4CC4(F)F)c3n2)CC1 (centres unmarked) [Example 428, N-(1H-benzimidazol-2-ylmethyl)-8-(2,2-difluorocyclopropyl)-2-(4-methylpiperazin-1-yl)pyrazolo[1,5-a][1,3,5]triazin-4-amine]	174	> 20000
CN1CCN(c2nc(NCc3nc4ccccc4[nH]3)n3ncc(CC(F)(F)F)c3n2)CC1 [Example 436, N-[(1H-benzimidazol-2-yl)methyl]-2-(4-methylpiperazin-1-yl)-8-(2,2,2-trifluoroethyl)pyrazolo [1,5-a][1,3,5]triazin-4-amine]	416	> 20000
Cc1cnn2c(NCc3nc4c(F)c(F)ccc4[nH]3)nc(N(C)CC(C)(C)O)nc12 [Example 395, 1-[(4-{[(4,5-difluoro-1H-benzimidazol-2-yl)methyl]amino}-8-methylpyrazolo[1,5-a][1,3,5]triazin-2-yl)(methyl)amino]-2-methylpropan-2-ol]	34	> 20000
